The values that follow come from patent US20240158393A1, “PYRIDONE COMPOUNDS AND METHODS OF USE” (Exelixis, Inc., priority 2021, published 2024).

Common to all, as to format: biochemical
One experiment has as its target T1, Human Met (Homo sapiens, UniProt P08581).
T1 construct: Human MET (residues 956-1390)
Description: Human Met kinase assay (33P radiometric / HTRF KinEase). Particulars: protocols of Examples D-1 and/or D-2; read-out: c-Met IC50. The procedure:
(§1) Kinase activity and compound inhibition were investigated using the ^33P-Phosphoryl transfer radiometric kinase assay, performed using the KinaseProfiler™ service of Eurofins Pharma Discovery Services UK Limited. Dose-response experiments were performed using nine compound concentrations in a 96-well microtiter plate. For each assay, all compounds were prepared to a 50× final assay concentration (50 μM) in 100% DMSO, then diluted in a half-log series, with the final top concentration at 1 μM. This working stock of the compound was added to the assay well as the first component in the reaction, followed by the remaining components as detailed in the following assay protocols below. The positive control wells (100% kinase activity) contain all components of the reaction including 2% DMSO (control for solvent effects), except the compound of interest. Blank wells contain all components of the reaction, with the reference inhibitor, staurosporine. This reference compound was used to abolish kinase activity and generated the 0% kinase activity base-line. IC50 values were calculated by nonlinear regression analysis using the sigmoidal dose-response (variable slope) curve fit on XLFit version 5.3 (ID Business Solutions).
(§2) Kinase activity and compound inhibition were also investigated using the HTRF® KinEase assay (Cisbio Cat #62TKOPEB) per manufacturer's instructions. In short, compounds were delivered in 300 nL volumes at 10 different concentrations in DMSO (3% final) to empty 384-well assay plates (Corning cat #3824). A mixture of enzyme, 1 μM biotinylated peptide substrate, and buffer in 10 μL volume was added. The assay was started upon the addition of ATP (at Km). The 10 μL reaction was incubated at room temperature. The reaction was stopped upon the addition of detection buffer containing streptavidin-XL665 (5 μL) and TK antibody-Eu3+(5 μL). After a 60 min incubation at room temperature, the fluorescence at 665 nm and 620 nm was read on an Envision microplate reader (Perkin Elmer).
(§3) Kinase activity normalized to DMSO (100% activity) and reference compound at 1 μM and (0% activity) was calculated using the fluorescence ratio […]. IC50 values were calculated by nonlinear regression analysis using a 4-parameter logistic curve fit in ActivityBase XE (IDBS).
Example D-1: Human Met (residues R974-S1390 with A1209G and V1290L, 3.4 nM) was incubated with 8 mM MOPS pH 7.0, 0.2 mM EDTA, 250 μM KKKGQEEEYVFIE (SEQ ID NO:3), 1 mM sodium orthovanadate, 5 mM […], 10 mM magnesium acetate, and 10 μM [γ-^33P-ATP]. The reaction was initiated by the addition of the Mg/ATP mix. After incubation for 40 minutes at room temperature, the reaction was stopped by the addition of phosphoric acid to a concentration of 0.5%. A reaction aliquot of 10 μL was then spotted onto a P30 filtermat and washed four times for 4 minutes in 0.425% phosphoric acid and once in methanol prior to drying and scintillation counting. Incorporated ^33P was measured using the Wallac Microbeta scintillation counter (Perkin Elmer).
Example D-2: Human MET (residues 956-1390; CarnaBio, 0.1 ng/well) was also incubated with enzymatic buffer (Cisbio) supplemented with 5 mM MgCl2, 1 mM DTT and 1 mM MnCl2. The mixture was added to the pre-plated compounds. The reaction was initiated upon addition of ATP at Km (3.0 μM). The reaction was incubated at room temperature for 40 min and stopped upon the addition of SA-XL665 and TK-antibody both diluted in EDTA-containing kinase detection buffer (Cisbio). The kinase activity was calculated as stated above and the IC50 values were reported.

Another experiment deals with T2, Human Mer (Homo sapiens, UniProt Q12866).
T2 construct: Human Mer (residues R557-E882 with H628Q and R794A, 0.7 nM); purchased Eurofins Pharma Discovery Services UK Limited (KinaseProfiler service)
T2 sequence (Q12866 557-882 limits assumed): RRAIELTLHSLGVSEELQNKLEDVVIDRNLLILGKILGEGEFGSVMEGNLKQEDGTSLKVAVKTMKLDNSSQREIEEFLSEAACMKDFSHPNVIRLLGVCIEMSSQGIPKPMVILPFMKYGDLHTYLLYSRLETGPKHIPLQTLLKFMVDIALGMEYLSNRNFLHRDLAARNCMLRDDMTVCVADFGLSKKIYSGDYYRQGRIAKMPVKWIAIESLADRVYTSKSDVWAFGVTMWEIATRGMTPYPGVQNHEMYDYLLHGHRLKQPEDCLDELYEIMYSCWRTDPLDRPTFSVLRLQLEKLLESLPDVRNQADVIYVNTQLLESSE
Description: Human Mer kinase assay (33P radiometric / HTRF KinEase). The conditions noted are these: protocols of Examples C-1 and/or C-2. The procedure: as §1, §2, §3
(§4) Example C-1: Human Mer (residues R557-E882 with H628Q and R794A, 0.7 nM) was incubated with 8 mM MOPS pH 7.0, 0.2 mM EDTA, 30 mM NaCl, 250 μM GGMEDIYFEFMGGKKK (SEQ ID NO: 2), 10 mM magnesium acetate, and 10 μM [γ-^33P-ATP]. The reaction was initiated by the addition of the Mg/ATP mix. After incubation for 40 minutes at room temperature, the reaction was stopped by the addition of phosphoric acid to a concentration of 0.5%. A reaction aliquot of 10 μL was then spotted onto a P30 filtermat and washed four times for 4 minutes in 0.425% phosphoric acid and once in methanol prior to drying and scintillation counting. Incorporated ^33P was measured using the Wallac Microbeta scintillation counter (Perkin Elmer).
Example C-2: Human MER (residues 528-999; CarnaBio, 1 ng/well) was also incubated with enzymatic buffer (Cisbio) supplemented with 5 mM MgCl2 and 1 mM DTT. The mixture was added to the pre-plated compounds. The reaction was initiated upon addition of ATP at Km (40 μM). The reaction was incubated at room temperature for 60 min and stopped upon the addition of SA-XL665 and TK-antibody both diluted in EDTA-containing kinase detection buffer (Cisbio). The kinase activity was calculated as stated above and the IC50 values were reported.

The target of the next experiment is T3, Human KDR (Homo sapiens, UniProt P35968).
T3 construct: Human KDR (residues K790-V1356, 55 nM); purchased Eurofins Pharma Discovery Services UK Limited (KinaseProfiler, B-1) and/or CarnaBio (B-2)
T3 sequence (P35968 790-1356): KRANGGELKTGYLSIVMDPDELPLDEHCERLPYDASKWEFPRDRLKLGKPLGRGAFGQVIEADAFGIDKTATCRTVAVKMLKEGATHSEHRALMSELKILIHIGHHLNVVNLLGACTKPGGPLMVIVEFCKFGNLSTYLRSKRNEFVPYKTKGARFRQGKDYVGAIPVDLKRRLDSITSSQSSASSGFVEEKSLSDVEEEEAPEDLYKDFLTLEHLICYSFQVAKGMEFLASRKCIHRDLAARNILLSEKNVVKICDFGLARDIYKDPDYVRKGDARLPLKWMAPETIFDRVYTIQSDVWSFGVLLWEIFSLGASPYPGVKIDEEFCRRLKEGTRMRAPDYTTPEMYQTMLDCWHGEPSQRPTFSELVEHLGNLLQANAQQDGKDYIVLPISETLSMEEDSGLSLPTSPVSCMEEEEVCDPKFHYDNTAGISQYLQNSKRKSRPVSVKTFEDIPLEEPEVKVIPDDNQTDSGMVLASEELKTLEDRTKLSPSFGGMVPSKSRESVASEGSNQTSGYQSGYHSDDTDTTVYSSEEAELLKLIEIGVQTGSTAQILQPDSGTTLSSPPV
Briefly: Human KDR kinase assay (33P radiometric / HTRF KinEase). The conditions noted are these: protocols of Examples B-1 and/or B-2. The method, then: as §1, §2, §3
as §4, with “B-1:” for “C-1:”, “KDR” for “Mer”, “K790-V1356, 55” for “R557-E882 with H628Q and R794A, 0.7”, “0.33 mg/mL myelin basic protein,” for “30 mM NaCl, 250 μM GGMEDIYFEFMGGKKK (SEQ ID NO: 2),”
Example B-2: Human KDR (residues 790-1356; CarnaBio, 0.1 ng/well) was also incubated with enzymatic buffer (Cisbio) supplemented with 5 mM MgCl2, 1 mM MnCl2, and 1 mM DTT. The mixture was added to the pre-plated compounds. The reaction was initiated upon addition of ATP at Km (4.0 μM). The reaction was incubated at room temperature for 40 min and stopped upon the addition of SA-XL665 and TK-antibody both diluted in EDTA-containing kinase detection buffer (Cisbio). The kinase activity was calculated as stated above and the IC50 values were reported.

T1 sequence (P08581 974-1390 limits assumed): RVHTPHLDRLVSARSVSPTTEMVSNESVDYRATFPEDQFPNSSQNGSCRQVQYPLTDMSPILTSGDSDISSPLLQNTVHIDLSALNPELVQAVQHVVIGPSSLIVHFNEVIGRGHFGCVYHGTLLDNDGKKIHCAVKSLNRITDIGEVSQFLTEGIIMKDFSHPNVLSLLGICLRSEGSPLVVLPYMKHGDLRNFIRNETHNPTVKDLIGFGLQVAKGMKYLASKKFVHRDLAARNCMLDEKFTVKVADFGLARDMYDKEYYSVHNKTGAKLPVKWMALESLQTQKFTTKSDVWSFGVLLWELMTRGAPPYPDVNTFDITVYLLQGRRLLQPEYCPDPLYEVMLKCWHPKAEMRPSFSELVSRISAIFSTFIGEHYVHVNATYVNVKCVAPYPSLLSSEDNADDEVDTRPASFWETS

`COCCOc1cnc2c(Oc3ccc(NC(=O)c4c(C)n(C)c(C)c(C5=CCOCC5)c4=O)cc3F)ccnc2c1` [Compound 67, 5-(3,6-Dihydro-2H-pyran-4-yl)-N-[3-fluoro-4-[[7-(2-methoxyethoxy)-1,5-naphthyridin-4-yl]oxy]phenyl]-1,2,6-trimethyl-4-oxopyridine-3-carboxamide]: the IC50 at Human Met, against Human Mer and against Human KDR was greater than 300 nM each time.
`COc1cc2nccc(Oc3cc(F)c(NC(=O)c4c(C)nc(C)c(OC)c4O)cc3F)c2nc1OC` [Compound 68, N-[4-[(6,7-dimethoxy-1,5-naphthyridin-4-yl)oxy]-2,5-difluorophenyl]-4-hydroxy-5-methoxy-2,6-dimethylpyridine-3-carboxamide]: the concentration for half-maximal inhibition (IC50) at Human Met was greater than 300 nM; against Human Mer, greater than 300 nM; against Human KDR, no more than 100 nM.
Turning to `COc1cc2nccc(Oc3ccc(NC(=O)c4c5n(c(C)c(C6=CCCC6)c4=O)CCOC5)cc3F)c2nc1OC` [Compound 69, 7-(Cyclopenten-1-yl)-N-[4-[(6,7-dimethoxy-1,5-naphthyridin-4-yl)oxy]-3-fluorophenyl]-6-methyl-8-oxo-3,4-dihydro-1H-pyrido[2,1-c][1,4]oxazine-9-carboxamide], the IC50 on Human Met, against Human Mer and at Human KDR was no more than 100 nM in each case.
`COCCOc1cc2nccc(Oc3ccc(NC(=O)c4c(C)nc(C)c(OC)c4O)cc3F)c2nc1OC` [Compound 70, N-[3-Fluoro-4-[[6-methoxy-7-(2-methoxyethoxy)-1,5-naphthyridin-4-yl]oxy]phenyl]-4-hydroxy-5-methoxy-2,6-dimethylpyridine-3-carboxamide]: the IC50 was greater than 300 nM at Human Met, greater than 300 nM at Human Mer and no more than 100 nM at Human KDR.
`COCCOc1cc2nccc(Oc3ccc(NC(=O)c4c(C)nc(C)c(OC)c4O)cc3)c2nc1OC` [Compound 71, 4-Hydroxy-5-methoxy-N-[4-[[6-methoxy-7-(2-methoxyethoxy)-1,5-naphthyridin-4-yl]oxy]phenyl]-2,6-dimethylpyridine-3-carboxamide]: the IC50 at Human Met was greater than 300 nM; on Human Mer, greater than 300 nM; against Human KDR, no more than 100 nM.
With `COCCOc1cc2ncnc(Oc3ccc(NC(=O)c4c(C)nc(C)c(OC)c4O)cc3F)c2nc1OC` [Compound 72, N-[3-Fluoro-4-[6-methoxy-7-(2-methoxyethoxy)pyrido[3,2-d]pyrimidin-4-yl]oxyphenyl]-4-hydroxy-5-methoxy-2,6-dimethylpyridine-3-carboxamide], the IC50 on Human Met was greater than 300 nM; at Human Mer, greater than 300 nM; against Human KDR, no more than 100 nM.
Consider `COc1cnc2c(Oc3ccc(NC(=O)c4c(C)n(C)c(C)c(OC)c4=O)cc3F)ccnc2c1` [Compound 75, N-[3-Fluoro-4-[(7-methoxy-1,5-naphthyridin-4-yl)oxy]phenyl]-5-methoxy-1,2,6-trimethyl-4-oxopyridine-3-carboxamide], for which the IC50 on Human Met, at Human Mer and against Human KDR was greater than 300 nM in each case.
Turning to `COc1cc2nccc(Oc3ccc(NC(=O)c4c(C)n(C)c(C)c(OC)c4=O)cc3)c2nc1OC` [Compound 76, N-[4-[(6,7-Dimethoxy-1,5-naphthyridin-4-yl)oxy]phenyl]-5-methoxy-1,2,6-trimethyl-4-oxopyridine-3-carboxamide], the IC50 on Human Met, against Human Mer and on Human KDR was greater than 300 nM in each case.
In the case of `COc1cc2nccc(Oc3ccc(NC(=O)c4c(C)n(C)c(C)c(OC)c4=O)cc3F)c2nc1OC` [Compound 77, N-[4-[(6,7-Dimethoxy-1,5-naphthyridin-4-yl)oxy]-3-fluorophenyl]-5-methoxy-1,2,6-trimethyl-4-oxopyridine-3-carboxamide], the IC50 at Human Met, against Human Mer and against Human KDR was greater than 300 nM each time.
With `COc1cc2nccc(Oc3ccc(NC(=O)c4c(C)n(C)c(C)c(C#N)c4=O)cc3F)c2nc1OC` [Compound 78, 5-Cyano-N-[4-[(6,7-dimethoxy-1,5-naphthyridin-4-yl)oxy]-3-fluorophenyl]-1,2,6-trimethyl-4-oxopyridine-3-carboxamide], the IC50 at Human Met, at Human Mer and at Human KDR was greater than 300 nM throughout.
On to `COc1cc2nccc(Oc3ccc(NC(=O)c4c5n(cc(C6=CCCC6)c4=O)CCOC5)cc3F)c2nc1OC` [Compound G1-1, 7-(Cyclopenten-1-yl)-N-[4-[(6,7-dimethoxy-1,5-naphthyridin-4-yl)oxy]-3-fluorophenyl]-8-oxo-3,4-dihydro-1H-pyrido[2,1-c][1,4]oxazine-9-carboxamide], for which the IC50 at Human Met was no more than 100 nM; against Human Mer, no more than 100 nM; on Human KDR, 100 to 300 nM.
As to `COc1cc2nccc(Oc3ccc(NC(=O)c4c5n(cc(C6=CCCC6)c4=O)CCOC5)cc3)c2nc1OC` [Compound G1-6, 7-(Cyclopenten-1-yl)-N-[4-[(6,7-dimethoxy-1,5-naphthyridin-4-yl)oxy]phenyl]-8-oxo-3,4-dihydro-1H-pyrido[2,1-c][1,4]oxazine-9-carboxamide], the IC50 on Human Met was no more than 100 nM; against Human Mer, no more than 100 nM; against Human KDR it was greater than 300 nM.

In general, IC50 refers to the concentration needed to halve the response being measured.
